Data on four compounds can be found in patent US20240124496A1, “BORONIC ACID COMPOUND AND METHOD FOR PRODUCING SAME” (OSAKA UNIVERSITY, priority 2021, published 2024).

A short description of one series: stability after labeling. The class given is physicochemical. The following applies: crude product solution with ascorbic acid added. The protocol:
3-(4,4,5,5-Tetramethyl-1,3,2-dioxaboran-2-yl)-α-methyl-L-tyrosine hydrochloride (Bpin-AMT) was dissolved in water to prepare a 1 w/v % aqueous solution. This aqueous solution (0.1 mL) was put in a microtube, and then aqueous [^131I]sodium iodide solution (0.03 mL, 1 MBq, Institute of Isotopes Co., Ltd.) and 0.4 w/v% aqueous N-bromosuccinimide (NBS) solution (0.03 mL) were added thereto, and the mixture was reacted at room temperature for 30 min. Then, to the reaction solution was added 3 w/v% aqueous ascorbic acid solution (0.03 mL) to stop the reaction to give a crude product solution of 3-iodo(^131I)-α-methyl-L-tyrosine (^131I-IAMT).
This crude product solution (1 μL) was analyzed by thin-layer chromatograph method (TLC). The sample was spotted on a thin-layer plate (silica gel G60), and a mixed solvent of acetonitrile/water (2/1) was used as a developing solvent. The thin-layer plate was exposed to an imaging plate for about 15 min, and then analyzed by a bioimage analyzer (Typhoon FLT7000, GE Healthcare, Chicago). 3-Iodo(^131I)-α-methyl-L-tyrosine was detected at Rf 0.72, and the radiochemical yield (RCY) was 86.1%. This compound was stable up to 7 days after labeling.

For series [1], the target named is T1, amino acid transporter (LAT1) (Homo sapiens, UniProt Q01650).
T1 construct: endogenous in cells; host or cells: MIA PaCa-2 (human pancreatic cancer cells)
Description: ^211At-AAMT intracellular uptake in MIA PaCa-2 cells. The following applies: 30 minutes; for inhibition of ^211At-AAMT intracellular uptake: excess amount (1 mM) added, ^211At-AAMT synthesized by the method of the present invention. The class given is cell-based. The protocol:
Human pancreatic cancer cells MIA PaCa-2 were seeded in a 24-well culture plate at a concentration of 1×10^5 cells/mL. After 2 days, the medium was removed, the cells were washed with PBS (−), and the medium was replaced with HEPES Buffer (amino acid free). To each well, the ^211At-AAMT synthesized by the method of the present invention or the conventional mercury method was added. In addition, an excess amount (1 mM) of BCH (LAT1 inhibitor) or unlabeled (AMT) was added. After culturing the cells for 30 minutes, the cells were washed with PBS (−), and lysed with 0.1 N NaOH, and the radioactivity of the lysate was measured. The ^211At-AAMT intracellular uptake (radioactivity count/protein amount) was calculated by correcting the radioactivity per protein amount. The results are shown in FIG. 6 (FIG. 6a: the method of the present invention, FIG. 6b: the conventional mercury method). In FIG. 6, CTL is control, BCH is 2-aminobicyclo[2,2,1]heptane-2-carboxylic acid, and AMT is α-methyltyrosine.

For series [2] the following is noted: produced by the mercury method; Non-Patent Document 1; cited from earlier work.
For another series, the system named is HEK293 cells. Nature of the series: cell viability after addition of ^211At-AAMT. The class given is cell-based. The following applies: 0.00-5.00 kBq per well, 24 hours, FIG. 7. The protocol:
HEK293 cells were seeded in a 24-well culture plate at a concentration of 1×10^5 cells/mL. After 2 days, the medium was removed, the cells were washed with PBS (−), and the medium was replaced with HEPES Buffer (amino acid free). To each well, 0.00-5.00 kBq of the ^211At-AAMT synthesized by the method of the present invention or the conventional mercury method was added. After culturing the cells for 24 hours, the cell viability was examined. […] Industrial Applicability

T1 sequence (Q01650 whole entry): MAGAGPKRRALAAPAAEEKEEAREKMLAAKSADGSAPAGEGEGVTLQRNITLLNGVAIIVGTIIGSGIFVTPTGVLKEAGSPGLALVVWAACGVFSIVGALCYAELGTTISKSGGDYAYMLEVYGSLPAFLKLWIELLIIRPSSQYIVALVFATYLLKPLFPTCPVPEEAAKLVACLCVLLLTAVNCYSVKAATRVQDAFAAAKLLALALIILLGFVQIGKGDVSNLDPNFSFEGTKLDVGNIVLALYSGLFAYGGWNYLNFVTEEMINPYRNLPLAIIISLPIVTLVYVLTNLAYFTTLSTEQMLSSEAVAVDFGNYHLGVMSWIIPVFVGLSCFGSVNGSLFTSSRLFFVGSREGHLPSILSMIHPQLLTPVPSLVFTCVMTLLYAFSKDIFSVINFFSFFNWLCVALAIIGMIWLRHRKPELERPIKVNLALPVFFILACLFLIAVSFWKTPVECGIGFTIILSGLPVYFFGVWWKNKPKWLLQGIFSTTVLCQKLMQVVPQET
T1 sequence (P08195 102-630 partner): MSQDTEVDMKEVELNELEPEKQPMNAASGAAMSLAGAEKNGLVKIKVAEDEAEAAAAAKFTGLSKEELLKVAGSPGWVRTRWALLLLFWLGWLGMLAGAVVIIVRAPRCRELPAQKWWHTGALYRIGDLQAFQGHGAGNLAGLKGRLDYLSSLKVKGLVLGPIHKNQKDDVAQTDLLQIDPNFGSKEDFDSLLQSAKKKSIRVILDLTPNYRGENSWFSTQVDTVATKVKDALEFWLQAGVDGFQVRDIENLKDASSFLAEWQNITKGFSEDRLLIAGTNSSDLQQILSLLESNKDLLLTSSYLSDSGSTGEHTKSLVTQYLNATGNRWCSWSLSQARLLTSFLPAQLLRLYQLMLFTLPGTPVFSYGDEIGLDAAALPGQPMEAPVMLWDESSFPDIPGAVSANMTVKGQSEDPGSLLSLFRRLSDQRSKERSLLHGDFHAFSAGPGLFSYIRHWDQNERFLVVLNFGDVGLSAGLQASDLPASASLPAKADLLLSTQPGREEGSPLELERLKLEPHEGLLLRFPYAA

As for `C[C@](N)(Cc1ccc(O)c([131I])c1)C(=O)O` [3-Iodo(^131I)-α-methyl-L-tyrosine, 3-iodo(^131I)-α-methyl-L-tyrosine], in the series “stability after labeling”, the “time stable after labeling” value is given as “up to 7 days”.
Take `C[C@](N)(Cc1ccc(O)cc1)C(=O)O` [AMT, α-methyltyrosine, reference compound]: the “inhibition of ^211At-AAMT intracellular uptake” value in series [1] is “significantly inhibited”.
Turning to `NC1(C(=O)O)CC2CCC1C2` (centres unmarked) [BCH, 2-aminobicyclo[2,2,1]heptane-2-carboxylic acid, reference compound], in series [1], the “inhibition of ^211At-AAMT intracellular uptake” value was “significantly inhibited”.
As to `C[C@](N)(Cc1ccc(O)c([211At])c1)C(=O)O` [^211At-AAMT, 3-astato (^211At)-α-methyl-L-tyrosine], the “stability of the produced ^211At-AAMT” value in series [2] is “unstable”. Also, in series [1] (synthesized by the conventional mercury method, FIG. 6b), the “^211At-AAMT intracellular uptake and its inhibition by BCH and AMT, compared with the method of the present invention” value was “consistent”. In addition, the “^211At-AAMT intracellular uptake (radioactivity count/protein amount)” value in series [1] (synthesized by the method of the present invention, control (CTL), FIG. 6a) was “strongly taken up”. The “cell viability, compared with the method of the present invention” value in the series with HEK293 cells (synthesized by the conventional mercury method) was “consistent”. For the same compound, the cell viability entry in the series with HEK293 cells (synthesized by the method of the present invention) is given as “decreased in a dose-dependent manner”.
